This is an account of results in PMC8381602, “Non-palm Plant Volatile α-Pinene Is Detected by Antenna-Biased Expressed Odorant Receptor 6 in the Rhynchophorus ferrugineus (Olivier) (Coleoptera: Curculionidae)” (Frontiers in Physiology, 2021).

Each structure is given as a SMILES string.

The subject of this assay is T1, RferOr6/RferOrco.
T1 construct: full-length ORF of RferOr6 (382 residues, 7 predicted TMDs) cloned from antennal cDNA in pT7TS; cRNA co-injected 1:1 with RferOrco in Xenopus oocytes; with Odorant receptor coreceptor
The assay can be described thus: two-electrode voltage clamp, Xenopus oocytes, dose-response. It counts as cell-based, Rhynchophorus ferrugineus. Particulars: agonist; co-expressed with RferOrco 1:1; holding potential -80 mV; Ringer's buffer pH 7.6; 20 s exposure. In general terms: Two-electrode voltage clamp holds a large cell at a set potential and records current.

With `CC1=CCC2CC1C2(C)C` (stereo not drawn) [α-pinene], the EC50 (usually the concentration that produces a half-maximal response) was 94.5 µM.
